Data as given in ChEMBL document CHEMBL4610060, “Orally bioavailable amine-linked macrocyclic inhibitors of factor XIa” (Bioorg Med Chem Lett, 2020).

How the values were obtained:
[1] = Permeability across basolateral to apical side in human Caco2 cells; assay type: ADME, cell-based; details: Caco-2, read-out: permeability
[2] = Permeability across apical to basolateral side in human Caco2 cells; assay type: ADME, cell-based; details: Caco-2, read-out: permeability
Plasma = test: Anticoagulant activity in human plasma assessed as EC1.5 of activated partial thromboplastin time by coagulometric analysis; assay type: functional
[3] = Metabolic stability in human liver microsomes assessed as half life; assay type: ADME, Microsome
[4] = Clearance in Sprague-Dawley rat at 1.13 mg/kg, iv or 2.27 mg/kg, po measured upto 24 hrs by LC-MS/MS analysis; assay type: ADME, organism-based; details: in vivo
[5] = Half life in Sprague-Dawley rat at 1.13 mg/kg, iv or 2.27 mg/kg, po measured upto 24 hrs by LC-MS/MS analysis; assay type: ADME, organism-based; details: in vivo
[6] = Volume of distribution at steady state in Sprague-Dawley rat at 1.13 mg/kg, iv or 2.27 mg/kg, po measured upto 24 hrs by LC-MS/MS analysis; assay type: ADME, organism-based; details: in vivo, read-out: Vdss
[7] = Oral bioavailability in Sprague-Dawley rat at 2.27 mg/kg measured upto 24 hrs by LC-MS/MS analysis; assay type: ADME, organism-based; details: in vivo
[8] = AUC in Sprague-Dawley rat at 2.27 mg/kg, po measured upto 24 hrs by LC-MS/MS analysis; assay type: ADME, organism-based; design: time < 24 hr, dose 2.27 mg/kg, route oral; details: in vivo
[9] = Metabolic stability in rat liver microsomes assessed as half life; assay type: ADME, Microsome
Coagulation factor XI = Coagulation factor XI (Homo sapiens, UniProt P03951); test: Inhibition of recombinant human activated coagulation factor XI using pyro-Glu-Pro-Arg-pNA as substrate by spectrophotometry
[10] = Clearance in Sprague-Dawley rat at 0.50 mg/kg, iv or 1.0 mg/kg, po measured upto 24 hrs by LC-MS/MS analysis; assay type: ADME, organism-based; details: in vivo, 0.5 mg/kg
[11] = Half life in Sprague-Dawley rat at 0.50 mg/kg, iv or 1.0 mg/kg, po measured upto 24 hrs by LC-MS/MS analysis; assay type: ADME, organism-based; details: in vivo
[12] = Volume of distribution at steady state in Sprague-Dawley rat at 0.50 mg/kg, iv or 1.0 mg/kg, po measured upto 24 hrs by LC-MS/MS analysis; assay type: ADME, organism-based; details: in vivo, 0.5 mg/kg, read-out: Vdss
[13] = Oral bioavailability in Sprague-Dawley rat at 1.0 mg/kg measured upto 24 hrs by LC-MS/MS analysis; assay type: ADME, organism-based; details: in vivo
[14] = AUC in Sprague-Dawley rat at 1.0 mg/kg, po measured upto 24 hrs by LC-MS/MS analysis; assay type: ADME, organism-based; design: dose 1 mg/kg, time < 24 hr, route oral; details: in vivo
[15] = Protein binding in rat assessed as unbound fraction; assay type: ADME
[16] = Clearance in Sprague-Dawley rat at 0.53 mg/kg, iv or 1.06 mg/kg, po measured upto 24 hrs by LC-MS/MS analysis; assay type: ADME, organism-based; details: in vivo
[17] = Half life in Sprague-Dawley rat at 0.53 mg/kg, iv or 1.06 mg/kg, po measured upto 24 hrs by LC-MS/MS analysis; assay type: ADME, organism-based; details: in vivo
[18] = Volume of distribution at steady state in Sprague-Dawley rat at 0.53 mg/kg, iv or 1.06 mg/kg, po measured upto 24 hrs by LC-MS/MS analysis; assay type: ADME, organism-based; details: in vivo, read-out: Vdss
[19] = Oral bioavailability in Sprague-Dawley rat at 1.06 mg/kg measured upto 24 hrs by LC-MS/MS analysis; assay type: ADME, organism-based; details: in vivo
[20] = AUC in Sprague-Dawley rat at 1.06 mg/kg, po measured upto 24 hrs by LC-MS/MS analysis; assay type: ADME, organism-based; design: time < 24 hr, dose 1.06 mg/kg, route oral; details: in vivo
[21] = Clearance in Sprague-Dawley rat at 0.31 mg/kg, iv or 0.61 mg/kg, po measured upto 24 hrs by LC-MS/MS analysis; assay type: ADME, organism-based; details: in vivo
[22] = Half life in Sprague-Dawley rat at 0.31 mg/kg, iv or 0.61 mg/kg, po measured upto 24 hrs by LC-MS/MS analysis; assay type: ADME, organism-based; details: in vivo
[23] = Volume of distribution at steady state in Sprague-Dawley rat at 0.31 mg/kg, iv or 0.61 mg/kg, po measured upto 24 hrs by LC-MS/MS analysis; assay type: ADME, organism-based; details: in vivo, read-out: Vdss
[24] = Oral bioavailability in Sprague-Dawley rat at 0.61 mg/kg measured upto 24 hrs by LC-MS/MS analysis; assay type: ADME, organism-based; details: in vivo
[25] = AUC in Sprague-Dawley rat at 0.61 mg/kg, po measured upto 24 hrs by LC-MS/MS analysis; assay type: ADME, organism-based; design: time < 24 hr, dose 0.61 mg/kg, route oral; details: in vivo
[26] = Clearance in Sprague-Dawley rat at 0.72 mg/kg, iv or 1.44 mg/kg, po measured upto 24 hrs by LC-MS/MS analysis; assay type: ADME, organism-based; details: in vivo
[27] = Half life in Sprague-Dawley rat at 0.72 mg/kg, iv or 1.44 mg/kg, po measured upto 24 hrs by LC-MS/MS analysis; assay type: ADME, organism-based; details: in vivo
[28] = Volume of distribution at steady state in Sprague-Dawley rat at 0.72 mg/kg, iv or 1.44 mg/kg, po measured upto 24 hrs by LC-MS/MS analysis; assay type: ADME, organism-based; details: in vivo, read-out: Vdss
[29] = Oral bioavailability in Sprague-Dawley rat at 1.44 mg/kg measured upto 24 hrs by LC-MS/MS analysis; assay type: ADME, organism-based; details: in vivo
[30] = AUC in Sprague-Dawley rat at 1.44 mg/kg, po measured upto 24 hrs by LC-MS/MS analysis; assay type: ADME, organism-based; design: time < 24 hr, dose 1.44 mg/kg, route oral; details: in vivo

Chain of Coagulation factor XI (P03951 19-387 limits assumed): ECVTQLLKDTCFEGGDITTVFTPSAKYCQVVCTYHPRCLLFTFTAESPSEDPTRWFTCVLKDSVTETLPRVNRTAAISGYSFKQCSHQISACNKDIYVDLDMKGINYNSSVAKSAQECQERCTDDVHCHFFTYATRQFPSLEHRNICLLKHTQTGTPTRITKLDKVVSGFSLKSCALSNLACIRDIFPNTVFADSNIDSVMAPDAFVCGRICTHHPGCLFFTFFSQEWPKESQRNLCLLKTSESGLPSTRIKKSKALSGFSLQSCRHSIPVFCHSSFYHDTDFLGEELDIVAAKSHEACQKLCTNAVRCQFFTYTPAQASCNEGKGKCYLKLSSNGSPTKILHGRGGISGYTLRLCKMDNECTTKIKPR
Chain of Coagulation factor XI (P03951 388-625 limits assumed): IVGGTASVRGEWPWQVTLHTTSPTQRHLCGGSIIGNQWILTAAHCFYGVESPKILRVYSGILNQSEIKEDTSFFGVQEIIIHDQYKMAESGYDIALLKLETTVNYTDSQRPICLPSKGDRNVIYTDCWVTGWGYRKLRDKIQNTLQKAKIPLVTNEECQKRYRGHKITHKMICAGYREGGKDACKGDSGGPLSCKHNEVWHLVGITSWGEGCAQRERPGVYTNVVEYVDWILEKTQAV

| SMILES | EC1.5 (Plasma) | half-life [3] | Ki (Coagulation factor XI) | other results |
| --- | --- | --- | --- | --- |
| COC(=O)Nc1ccc2c(c1)NC(=O)CCCC[C@H](NC(=O)/C=C/c1cc(Cl)ccc1-n1cnnn1)c1nc-2c[nH]1 | 0.3 µM | 90 min |  | Papp B→A [1]: 6.7 ×10⁻⁶ cm/s; Papp A→B [2]: < 1.5 ×10⁻⁶ cm/s; clearance [4]: 10 mL/min/kg; half-life [5]: 60 min; Vd [6]: 0.3 L/kg; bioavailability [7]: < 1%; AUC at 24 h [8]: 0.024 µM·h; half-life [9]: 76 min |
| COC(=O)Nc1ccc2c(c1)NCCCCC[C@H](NC(=O)/C=C/c1cc(Cl)ccc1-n1cnnn1)c1nc-2c[nH]1 | 6.2 µM | 6 min | 16 nM |  |
| CCOC(=O)[C@H]1CCCC[C@H](NC(=O)/C=C/c2cc(Cl)ccc2-n2cnnn2)c2nc(c[nH]2)-c2ccc(NC(=O)OC)cc2N1 | 0.86 µM | 7 min | 0.22 nM | Papp B→A [1]: 13.3 ×10⁻⁶ cm/s; Papp A→B [2]: < 1.5 ×10⁻⁶ cm/s; clearance [10]: 2.8 mL/min/kg; half-life [11]: 90 min; Vd [12]: 0.2 L/kg; bioavailability [13]: 7%; AUC at 24 h [14]: 0.478 µM·h; fraction unbound [15]: < 0.002; half-life [9]: 34 min |
| COC(=O)Nc1ccc2c(c1)N[C@@H](CO)CCCC[C@H](NC(=O)/C=C/c1cc(Cl)ccc1-n1cnnn1)c1nc-2c[nH]1 | 0.54 µM | 10 min | 0.61 nM |  |
| COC(=O)c1ccc2c(c1)-c1c[nH]c(n1)[C@@H](NC(=O)/C=C/c1cc(Cl)ccc1-n1cnnn1)C/C=C/CCC(=O)N2 |  | 6 min | 245 nM |  |
| COC(=O)Nc1ccc2c(c1)NC(=O)CC/C=C/C[C@H](NC(=O)/C=C/c1cc(Cl)ccc1-n1cnnn1)c1nc-2c[nH]1 | 0.27 µM |  |  | Papp A→B [2]: < 1.5 ×10⁻⁶ cm/s |
| COC(=O)Nc1ccc2c(c1)N[C@@H](C(=O)N(C)C)CCCC[C@H](NC(=O)/C=C/c1cc(Cl)ccc1-n1cnnn1)c1nc-2c[nH]1 | 0.36 µM | 14 min | 0.31 nM |  |
| COC(=O)Nc1ccc2c(c1)N[C@@H](C(F)F)CCCC[C@H](NC(=O)/C=C/c1cc(Cl)ccc1-n1cnnn1)c1nc-2c[nH]1 | 2 µM | 25 min | 1.3 nM |  |
| COC(=O)Nc1ccc2c(c1)N[C@H](C(F)(F)F)CCCC[C@H](NC(=O)/C=C/c1cc(Cl)ccc1-n1cnnn1)c1nc-2c[nH]1 |  |  | 370 nM |  |
| O=C(/C=C/c1cc(Cl)ccc1-n1cnnn1)N[C@H]1C/C=C/CCC(=O)Nc2ccccc2-c2c[nH]c1n2 | 2.9 µM | 3 min | 5.1 nM |  |
| O=C(/C=C/c1cc(Cl)ccc1-n1cnnn1)N[C@H]1C/C=C/CCC(=O)Nc2ccc(F)cc2-c2c[nH]c1n2 | 2.5 µM | 2 min | 6 nM |  |
| O=C(/C=C/c1cc(Cl)ccc1-n1cnnn1)N[C@H]1C/C=C/CCC(=O)Nc2ccc(C(=O)O)cc2-c2c[nH]c1n2 | 1.7 µM | 94 min | 3.6 nM |  |
| COC(=O)Nc1ccc2c(c1)C[C@@H](C(=O)OC)CCCC[C@H](NC(=O)/C=C/c1cc(Cl)ccc1-n1cnnn1)c1nc-2c[nH]1 | 25 µM | 8 min | 24 nM |  |
| COC(=O)C[C@H]1CCCC[C@H](NC(=O)/C=C/c2cc(Cl)ccc2-n2cnnn2)c2nc(c[nH]2)-c2ccc(NC(=O)OC)cc2N1 | 1.1 µM | 4 min | 2 nM |  |
| COC(=O)Nc1ccc2c(c1)N[C@@H](C(=O)OC)CCCC[C@H](NC(=O)/C=C/c1cc(Cl)ccc1-n1cnnn1)c1nc-2c[nH]1 | 0.55 µM | 10 min | 0.46 nM | Papp B→A [1]: 10.3 ×10⁻⁶ cm/s; Papp A→B [2]: < 1.5 ×10⁻⁶ cm/s; clearance [16]: 3 mL/min/kg; half-life [17]: 108 min; Vd [18]: 0.3 L/kg; bioavailability [19]: 8%; AUC at 24 h [20]: 0.487 µM·h; fraction unbound [15]: < 0.002; half-life [9]: 48 min |
| O=C(/C=C/c1cc(Cl)ccc1-n1cnnn1)N[C@H]1C/C=C/CCC(=O)Nc2cc(F)ccc2-c2c[nH]c1n2 | 16 µM | 3 min | 12 nM |  |
| COC(=O)Nc1ccc2c(c1)N[C@@H](C)CCCC[C@H](NC(=O)/C=C/c1cc(Cl)ccc1-n1cnnn1)c1nc-2c[nH]1 | 5.2 µM | 7 min | 8.3 nM |  |
| COC(=O)Nc1ccc2c(c1)N[C@@H](C(=O)O)CCCC[C@H](NC(=O)/C=C/c1cc(Cl)ccc1-n1cnnn1)c1cc-2ccn1 | 7.1 µM | 99 min | 2.6 nM |  |
| CCOC(=O)[C@H]1CCCC[C@H](NC(=O)/C=C/c2cc(Cl)ccc2-n2cnnn2)c2cc(ccn2)-c2ccc(NC(=O)OC)cc2N1 | 6.1 µM | 30 min | 2.5 nM | Papp B→A [1]: 10.1 ×10⁻⁶ cm/s; Papp A→B [2]: < 1.5 ×10⁻⁶ cm/s; clearance [10]: 4.9 mL/min/kg; half-life [11]: 216 min; Vd [12]: 1.3 L/kg; bioavailability [13]: 41%; AUC at 24 h [14]: 1.29 µM·h; fraction unbound [15]: 0.008; half-life [9]: 59 min |
| O=C(/C=C/c1cc(Cl)ccc1-n1cnnn1)N[C@H]1CCCCC(=O)Nc2ccccc2-c2c[nH]c1n2 | >40 µM | 6 min | 48 nM | Papp B→A [1]: 20.5 ×10⁻⁶ cm/s; Papp A→B [2]: < 1.5 ×10⁻⁶ cm/s; clearance [21]: 53 mL/min/kg; half-life [22]: 30 min; Vd [23]: 1.2 L/kg; bioavailability [24]: < 1%; AUC at 24 h [25]: 0.001 µM·h |
| COC(=O)Nc1ccc2c(c1)N[C@@H](C(F)(F)F)CC/C=C/C[C@H](NC(=O)/C=C/c1cc(Cl)ccc1-n1cnnn1)c1nc-2c[nH]1 | >40 µM | 29 min | 53 nM |  |
| COC(=O)Nc1ccc2c(c1)N[C@@H](C(F)(F)F)CCCC[C@H](NC(=O)/C=C/c1cc(Cl)ccc1-n1cnnn1)c1cc-2ccn1 | 13 µM | 95 min | 16 nM |  |
| COC(=O)Nc1ccc2c(c1)N[C@@H](C(F)(F)F)CCCC[C@H](NC(=O)/C=C/c1cc(Cl)ccc1-n1cnnn1)c1nc-2c[nH]1 | 2.6 µM | 54 min | 1.1 nM | clearance [26]: 12 mL/min/kg; half-life [27]: 84 min; Vd [28]: 0.4 L/kg; bioavailability [29]: 9%; AUC at 24 h [30]: 0.307 µM·h; fraction unbound [15]: 0.002; half-life [9]: 14 min |
